Source: PMC4020900 (International Journal of Nanomedicine, 2014)
≈ marks a conversion by molar mass, not a printed value.

What was measured:
Caco-2 cells [1] = experiment: SRB cytotoxicity assay; type: cell-based; conditions: Homo sapiens, Caco-2, 24 h, read-out: IC50 (SRB assay)
[2] = Stability in pH 7.4 HBSS buffer with ascorbic acid; type: physicochemical; conditions: 100 μg/mL, 10 mM ascorbic acid, 37°C, 6 hours
Caco-2 cells [3] = experiment: Stability and metabolism on incubation with Caco-2 cells; type: in vitro ADME, human; conditions: 100 μg/mL, incubated with Caco-2 cells, pH 7.4 HBSS, 10 mM ascorbic acid, 37°C, 6 hours
[4] = stated in the introduction, method and reference not given; cited from earlier work
Caco-2 cells [5] = experiment: Cellular uptake of FITC-conjugated drugs and their niosomes by Caco-2 cells; type: in vitro ADME, human; conditions: 100 μg/mL, 37°C, 6 hours incubation, n=3

Drug present and unchanged [2]: 86.2%
Decrease of drug (Caco-2 cells [3]): 13.0%
Uptake ± SD (Caco-2 cells [5]): 0.90±0.14 μg/mg protein
SMILES: O=C(O[C@@H]1Cc2c(O)cc(O)cc2O[C@@H]1c1cc(O)c(O)c(O)c1)c1cc(O)c(O)c(O)c1 [EGCG, (−)-epigallocatechin gallate]
IC50 (Caco-2 cells [1]): 125 ± 3.3 µg/mL (≈ 272 µM)
Octanol/buffer partition coefficient P [4]: 0.86±0.03
